Experiments:
[1] = Displacement of [3H]Ro15-1788 from rat GABAA alpha-1-beta-2-gamma-2 receptor expressed in HEK293 cells after 1 hr assessed as residual binding by liquid scintillation counting
[2] = target: Gamma-aminobutyric acid receptor subunit alpha-1 (Rattus norvegicus) (UniProt P62813); assay: Activity at rat wild type GABAA alpha-1-beta-2-gamma-2 receptor expressed in xenopus oocytes assessed as GABA-elicited response by two electrode voltage clamp method relative to control
Gamma-aminobutyric acid receptor subunit alpha-1 (Rattus norvegicus), sequence (P62813 whole entry, looked up): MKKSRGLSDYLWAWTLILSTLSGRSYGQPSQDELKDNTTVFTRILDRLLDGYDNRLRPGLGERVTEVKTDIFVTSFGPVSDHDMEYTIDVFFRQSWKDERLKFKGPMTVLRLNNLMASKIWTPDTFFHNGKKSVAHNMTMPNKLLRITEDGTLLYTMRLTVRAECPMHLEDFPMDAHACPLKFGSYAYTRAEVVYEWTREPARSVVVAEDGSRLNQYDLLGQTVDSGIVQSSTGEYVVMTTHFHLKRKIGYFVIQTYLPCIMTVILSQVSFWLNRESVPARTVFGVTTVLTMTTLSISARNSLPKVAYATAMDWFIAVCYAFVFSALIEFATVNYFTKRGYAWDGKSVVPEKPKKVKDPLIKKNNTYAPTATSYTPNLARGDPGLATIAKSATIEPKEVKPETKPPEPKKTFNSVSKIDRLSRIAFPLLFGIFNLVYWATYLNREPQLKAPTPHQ

Row | Compound | Kd [1] | EC50 [2]
1 | CCOC(=O)c1ncn2c1CN(C)C(=O)c1cc(N=C=S)ccc1-2 [8-Isothiocyanato-5-methyl-6-oxo-5,6-dihydro-4H-2,5,10b-triaza-benzo[e]azulene-3-carboxylic acid ethyl ester] | 878 nM | 250 nM
2 | CCOC(=O)c1ncn2c1CN(C)C(=O)c1cc(N=[N+]=[N-])ccc1-2 [RO-154513] |  | 1.1 nM
